Laboratory results published in US20240279227A1, “FUSED HETEROCYCLIC DERIVATIVES” (Janssen Sciences Ireland Unlimited Company, priority 2021, published 2024).

What was measured:
[1] = Cytotoxicity, ATPlite Luminescence Assay; assay type: cell-based, human; details: human, HepG2 or HepG2.117 cells, 3-days incubation unless marked with *, ATPlite viability
Protocol: Cytotoxicity of the compounds was tested using HepG2 or HepG2.117 cells, incubated for 3 or 4 days in the presence of compounds. The viability of the cells was assessed using the PERKIN ELMER ATPlite Luminescence Assay System.”

[2] = Human liver microsome stability; assay type: in vitro ADME; details: human, pooled human liver microsomes, pH 7.4, pooled human liver microsomes 0.5 mg/mL, 1 μM compound, NADPH 1 mM, pH 7.4, 37° C., 0-60 min; read-out: HLM Metabolism t1/2
Protocol: Pooled human liver microsomes (0.5 mg/mL) was pre-incubated with 1 μM test compounds or control compounds (verapamil, warfarin and cerivastatin) in 0.1 M phosphate buffer pH 7.4 containing 1 mM MgCl2 at 37° C. The final concentration of DMSO and acetonitrile are 0.05% and 0.2%, respectively. All incubations are performed singularly for each compound. NADPH was added to initiate the reaction with the final concentration of 1 mM and the final incubation volume of 400 μL.
At 6 time points (0, 5, 10, 20, 40 and 60 min) reactions were stopped by the removal of 50 μL of the incubation mixture into plates containing acetonitrile at a of 1:3 (v:v). The plates were centrifuged at 3000 rpm for 10 min at 4° C. to precipitate the protein. Following protein precipitation, the sample supernatants were combined in cassettes of up to 8 compounds. The internal standard was added (1:1 supernatant to internal standard solution) and samples were analyzed using standard LC-MS conditions.
From a plot of ln peak area ratio (compound peak area/internal standard peak area) against time, the gradient of the line is determined. Subsequently, half-life is calculated using the equations below: […]

HBV = assay: Anti-HBV activity in HepG2.117 cell line (intracellular HBV DNA, real-time PCR); assay type: cell-based, hepatitis B virus; details: HepG2.117 cells, HBV replication induced, 3 days of treatment, intracellular HBV DNA by real-time PCR
Protocol: The anti HBV activity was measured using the HepG2.117 cell line, a stable, inducibly HBV producing cell line, which replicates HBV in the absence of doxycycline (Tet-off system). The HepG2 cell line is available from ATCCR under number HB-8065. Transfection of the HepG2 cell line can be as described in Sun and Nassal 2006 Journal of Hepatology 45 (2006) 636-645 “Stable HepG2-and Huh7-based human hepatoma cell lines for efficient regulated expression of infectious hepatitis B virus”.
For the antiviral assay, HBV replication was induced, followed by a treatment with serially diluted compound in 96-well plates. After 3 days of treatment, the antiviral activity was determined by quantification of intracellular HBV DNA using real-time PCR and an HBV specific primer set and probe.

[3] = Hepatitis B virus, HepG2.117, 72 h

Row | Structure (SMILES) | CC50 [1] [µM] | half-life at 1 μM [2] [h] | EC50 (HBV) [µM] | EC50 (HBV; [3]) [µM]
1 | CNC(=O)[C@@H]1CN(C(C)c2ccc(S(C)(=O)=O)cc2)C(=O)c2c3c(nn21)C[C@@H](C)N(C(=O)c1ccc(Cl)c(C(F)(F)F)c1)C3 (single isomer, unassigned) [Compound 19A, (3R,7S)-2-(4-Chloro-3-(trifluoromethyl)benzoyl)-N,3-dimethyl-9-((R*)-1-(4-(methylsulfonyl)phenyl)ethyl)-10-oxo-1,2,3,4,7,8,9,10-octahydropyrido[4′,3′:3,4]pyrazolo[1,5-a]pyrazine-7-carboxamide] | > 50 | > 3 | 0.12 | –
2 | CNC(=O)[C@@H]1CN([C@@H](C)c2cnc(C(F)(F)F)nc2)C(=O)c2c3c(nn21)C[C@@H](C)N(C(=O)c1ccc(Cl)c(Cl)c1)C3 [Compound 4B, (3R,7S)-2-(3,4-dichlorobenzoyl)-N,3-dimethyl-10-oxo-9-((S)-1-(2-(trifluoromethyl)pyrimidin-5-yl)ethyl)-1,2,3,4,7,8,9,10-octahydropyrido[4′,3′:3,4]pyrazolo[1,5-a]pyrazine-7-carboxamide] | > 50 | > 3 | – | 0.16
3 | CNC(=O)[C@@H]1CN([C@@H](C)c2ccc(OC(F)F)cc2)C(=O)c2c3c(nn21)C[C@@H](C)N(C(=O)c1ccc(Cl)c(Cl)c1)C3 [Compound 16B, (3R,7S)-2-(3,4-dichlorobenzoyl)-9-((S)-1-(4-(difluoromethoxy)phenyl)ethyl)-N,3-dimethyl-10-oxo-1,2,3,4,7,8,9,10-octahydropyrido[4′,3′:3,4]pyrazolo[1,5-a]pyrazine-7-carboxamide] | 16.9 | > 3 | – | 0.02
4 | CNC(=O)[C@@H]1CN(Cc2ccc(OC(F)F)cc2)C(=O)c2c3c(nn21)C[C@@H](C)N(C(=O)c1ccc(Cl)c(C(F)(F)F)c1)C3 [Compound 28, (3R,7S)-2-(4-Chloro-3-(trifluoromethyl)benzoyl)-9-(4-(difluoromethoxy)benzyl)-N,3-dimethyl-10-oxo-1,2,3,4,7,8,9,10-octahydropyrido[4′,3′:3,4]pyrazolo[1,5-a]pyrazine-7-carboxamide] | 29.5 | > 3 | – | 0.019
5 | CNC(=O)[C@@H]1CN(C(C)c2ccc(C(C)(C)O)cc2)C(=O)c2c3c(nn21)C[C@@H](C)N(C(=O)c1ccc(Cl)c(Cl)c1)C3 (single isomer, unassigned) [Compound 5B, (3R,7S)-2-(3,4-Dichlorobenzoyl)-9-((S*)-1-(4-(2-hydroxypropan-2-yl)phenyl)ethyl)-N,3-dimethyl-10-oxo-1,2,3,4,7,8,9,10-octahydropyrido[4′,3′:3,4]pyrazolo[1,5-a]pyrazine-7-carboxamide] | > 50 | 1.44 | – | 0.019
6 | C[C@@H]1Cc2nn3c(c2CN1C(=O)c1ccc(Cl)c(Cl)c1)C(=O)N([C@H](C)c1ccc(C#N)cc1)CC3 [Ref 4, reference compound] | – | 0.225 | – | 0.076
7 | CNC(=O)[C@@H]1CN([C@@H](C)c2ccc(S(C)(=O)=O)cc2)C(=O)c2c3c(nn21)C[C@@H](C)N(C(=O)c1ccc(Cl)c(Cl)c1)C3 [Compound 18B, (3R,7S)-2-(3,4-Dichlorobenzoyl)-N,3-dimethyl-9-((S)-1-(4-(methylsulfonyl)phenyl)ethyl)-10-oxo-1,2,3,4,7,8,9,10-octahydropyrido[4′,3′:3,4]pyrazolo[1,5-a]pyrazine-7-carboxamide] | > 50 | > 3 | – | 0.037
8 | CNC(=O)[C@@H]1CN([C@@H](C)c2ccc(OC(F)F)cc2)C(=O)c2c3c(nn21)C[C@@H](C)N(C(=O)c1ccc(Cl)c(C(F)F)c1)C3 [Compound 25, (3R,7S)-2-(4-Chloro-3-(difluoromethyl)benzoyl)-9-((S)-1-(4-(difluoromethoxy)phenyl)ethyl)-N,3-dimethyl-10-oxo-1,2,3,4,7,8,9,10-octahydropyrido[4′,3′:3,4]pyrazolo[1,5-a]pyrazine-7-carboxamide] | > 50 | 1.3 | – | 0.01
9 | CNC(=O)[C@@H]1CN(Cc2ccc(S(=O)(=O)C3CC3)cc2)C(=O)c2c3c(nn21)C[C@@H](C)N(C(=O)c1ccc(Cl)c(C(F)(F)F)c1)C3 [Compound 21, (3R,7S)-2-(4-Chloro-3-(trifluoromethyl)benzoyl)-9-(4-(cyclopropylsulfonyl)benzyl)-N,3-dimethyl-10-oxo-1,2,3,4,7,8,9,10-octahydropyrido[4′,3′:3,4]pyrazolo[1,5-a]pyrazine-7-carboxamide] | > 50 | > 3 | – | 0.086
10 | CNC(=O)[C@@H]1CN(C(C)c2ccc(-n3cncn3)cc2)C(=O)c2c3c(nn21)C[C@@H](C)N(C(=O)c1ccc(Cl)c(Cl)c1)C3 (single isomer, unassigned) [Compound 2A, (3R,7S)-9-((R*)-1-(4-(1H-1,2,4-triazol-1-yl)phenyl)ethyl)-2-(3,4-dichlorobenzoyl)-N,3-dimethyl-10-oxo-1,2,3,4,7,8,9,10-octahydropyrido[4′,3′:3,4]pyrazolo[1,5-a]pyrazine-7-carboxamide] | > 50 | > 3 | 0.042 | –
11 | CNC(=O)[C@@H]1CN([C@@H](C)c2cnc(C(F)(F)F)cn2)C(=O)c2c3c(nn21)C[C@@H](C)N(C(=O)c1ccc(Cl)c(Cl)c1)C3 [Compound 6B, (3R,7S)-2-(3,4-Dichlorobenzoyl)-N,3-dimethyl-10-oxo-9-((S)-1-(5-(trifluoromethyl)pyrazin-2-yl)ethyl)-1,2,3,4,7,8,9,10-octahydropyrido[4′,3′:3,4]pyrazolo[1,5-a]pyrazine-7-carboxamide] | > 50 | > 3 | – | 0.092
12 | CC(c1ccc(OC(F)F)nc1)N1C[C@@H](C(N)=O)n2nc3c(c2C1=O)CN(C(=O)c1ccc(Cl)c(Cl)c1)[C@H](C)C3 (single isomer, unassigned) [Compound 12A, (3R,7S)-2-(3,4-Dichlorobenzoyl)-9-((R*)-1-(6-(difluoromethoxy)pyridin-3-yl)ethyl)-3-methyl-10-oxo-1,2,3,4,7,8,9,10-octahydropyrido[4′,3′:3,4]pyrazolo[1,5-a]pyrazine-7-carboxamide] | 24.4 | > 3 | 0.059 | –
13 | CNC(=O)[C@@H]1CN([C@H](C)c2ccc(S(C)(=O)=O)cc2)C(=O)c2c3c(nn21)C[C@@H](C)N(C(=O)c1ccc(Cl)c(Cl)c1)C3 [Compound 18A, (3R,7S)-2-(3,4-Dichlorobenzoyl)-N,3-dimethyl-9-((R)-1-(4-(methylsulfonyl)phenyl)ethyl)-10-oxo-1,2,3,4,7,8,9,10-octahydropyrido[4′,3′:3,4]pyrazolo[1,5-a]pyrazine-7-carboxamide] | > 50 | > 3 | – | 0.597
14 | CNC(=O)[C@@H]1CN(C(C)c2ccccn2)C(=O)c2c3c(nn21)C[C@@H](C)N(C(=O)c1ccc(Cl)c(Cl)c1)C3 (single isomer, unassigned) [Compound 37A, (3R,7S)-2-(3,4-Dichlorobenzoyl)-N,3-dimethyl-10-oxo-9-((R*)-1-(pyridin-2-yl)ethyl)-1,2,3,4,7,8,9,10-octahydropyrido[4′,3′:3,4]pyrazolo[1,5-a]pyrazine-7-carboxamide] | > 50 | > 3 | – | 0.089
15 | C[C@@H]1Cc2nn3c(c2CN1C(=O)c1ccc(Cl)c(Cl)c1)C(=O)N([C@@H](C)c1ccc(OC(F)F)cc1)CC3 [Ref 2, reference compound] | 19.8 | 0.117 | – | 0.026
16 | CC(c1ccccn1)N1CCn2nc3c(c2C1=O)CN(C(=O)c1ccc(Cl)c(Cl)c1)[C@H](C)C3 (mixture of isomers) [Ref 3, reference compound] | – | 0.11 | – | 0.072
17 | C[C@@H]1Cc2nn3c(c2CN1C(=O)c1ccc(Cl)c(Cl)c1)C(=O)N([C@@H](C)c1ccc(C#N)cc1)CC3 [Ref 5, reference compound] | – | 0.132 | – | 0.022
